The target of data set [1] is Spike glycoprotein (Severe acute respiratory syndrome coronavirus 2, UniProt P0DTC2). Kind of data set: Binding affinity to C-terminal 6His-tagged SARS-COV-2 recombinant S protein (Val16 to Arg685 residues) expressed in mammalian expression system assessed as dissociation constant by SPR analysis.
The nature of data set [2]: Selectivity index, ratio of CC50 for human 293T/ACE2 cells to EC50 for SARS-CoV-2 Omicron. Format: toxicity. The conditions noted are these: read-out: Ratio CC50/EC50.
The subject of data set [3] is Severe acute respiratory syndrome coronavirus 2. The experiment in a line: Inhibition of 6-helical bundle formation in SARS-CoV-2 Spike protein HR1/HR2 domains in presence of HR-1P and HR2P at 20 uM incubated for 30 mins by circular dichroism spectroscopy assay. For orientation: Circular dichroism is the unequal absorption of left and right circularly polarised light.

A short description of data set [4]: Metabolic stability in rat liver microsomes assessed as half life measured upto 250 mins by LC-MS/MS analysis. Format: ADME, Microsome. The settings on record: 4.167 h. (In general: Liver microsomes are vesicles of endoplasmic reticulum, rich in cytochrome P450 enzymes.)
Data set [5] in a line: Metabolic stability in rat liver microsomes assessed as intrinsic clearance measured upto 250 mins by LC-MS/MS analysis. Format: ADME, Microsome. The settings on record: 4.167 h.
In data set [6] the test system is SARS-CoV-2. The experiment in a line: Antiviral activity against luciferase-expressing pseudovirus encoding SARS-CoV-2 Omicron expressing S protein infected in human 293T/ACE2 cells assessed as reduction of viral growth at 0.078 to 10 uM measured after 48 hrs by luciferase assay. The class given is functional, organism-based. The conditions noted are these: Severe acute respiratory syndrome coronavirus 2, dose 0.078-10 µM.

Data set [7] concerns the target Spike glycoprotein/Angiotensin-converting enzyme 2 (Severe acute respiratory syndrome coronavirus 2) (UniProt Q9BYF1+P0DTC2). The experiment in a line: Inhibition of SARS-COV-2 S1 protein/human ACE2 receptor interaction at 20 uM by co-immunoprecipitation assay.
Data set [8] has as its system SARS-CoV-2. The experiment in a line: Antiviral activity against vesicular stomatitis virus glycoprotein expressing pseudovirus encoding SARS-CoV-2 infected in human 293T/ACE2 cells assessed as reduction of viral growth at 0.078 to 10 uM measured after 48 hrs by luciferase assay. The class given is functional, organism-based. The conditions noted are these: Severe acute respiratory syndrome coronavirus 2, dose 0.078-10 µM.

Data set [9] has as its system SARS-CoV-2. The experiment in a line: Antiviral activity against luciferase-expressing pseudovirus encoding SARS-CoV-2 Omicron expressing S protein infected in human 293T/ACE2 cells assessed as reduction of viral growth measured after 48 hrs by luciferase assay. Format: functional, organism-based. The conditions noted are these: Severe acute respiratory syndrome coronavirus 2, 293T/ACE2, 48 h.

In data set [10] the test system is SARS-CoV-2. The experiment in a line: Antiviral activity against luciferase-expressing pseudovirus encoding SARS-CoV-2 Omicron S/HIV infected in human 293T/ACE2 cells assessed as reduction of viral growth at 10 uM measured after 48 hrs by luciferase assay relative to control. The class given is functional, Severe acute respiratory syndrome coronavirus 2. Also noted: scale not given: the % may be the effect or the level left.

Data set [11] in a line: Stability of compound in rat plasma assessed as change in retention time of parent compound incubated for 180 mins by LC-MS/MS analysis. Format: ADME, cell-free. The conditions noted are these: 3 h.
Data set [12] in a line: Cytotoxicity against human 293T/ACE2 cells assessed as reduction in cell growth measured after 48 hrs by MTT assay. Format: functional. A general note: Tetrazolium dyes change colour on reduction, which living cells bring about.
The subject of data set [13] is SARS-CoV-2. Kind of data set: Antiviral activity against SARS-COV-2 Omicron expressing S protein and co-expressing EGFP infected in African green monkey Vero E6 cells assessed as inhibition of S protein mediated membrane fusion at 10 uM incubated of 30 mins measured after 24 hrs by inverted fluorescence microscopic analysis. The class given is functional, organism-based. The conditions noted are these: Severe acute respiratory syndrome coronavirus 2, time 24.5 hrs.

Each structure is given as a SMILES string. Calls of active or inactive are those of the source. No cut-off for these calls is given here.

On to `C=C(C)[C@@H]1CC[C@]2(C(=O)Nc3ccc4ccccc4c3)CC[C@]3(C)[C@H](CC[C@@H]4[C@@]5(C)CC[C@H](O[C@@H]6O[C@H](CO)[C@@H](O[C@@H]7O[C@@H](C)[C@H](O)[C@@H](O)[C@H]7O)[C@H](O)[C@H]6O[C@@H]6O[C@@H](C)[C@H](O)[C@@H](O)[C@H]6O)C(C)(C)[C@@H]5CC[C@]43C)[C@@H]12`, for which the Kd in data set [1] amounted to 3.26 µM. In addition, the selectivity ratio in data set [2] turned out to be 73.6. For the same compound, the inhibition entry in [3] and in [7] was “inactive” each time. Also, in [4], the t1/2 was 2.8202 h. In data set [5], the CLH is 1.15 µL/min/mg. Besides, the Activity entry was “Dose-Dependent Effect” in data set [6] and 90% in [10]. Besides, the result in data set [8] was inactive. Also, the concentration for a half-maximal effect (EC50) in [9] was found to be 0.82 µM. Besides, the Stability entry in data set [11] was “Stable”. In addition, the CC50 in [12] is 60.3 µM. Besides, the outcome in data set [13] was Active.

On to `C=C(C)[C@@H]1CC[C@]2(C(=O)Nc3ccc(Cl)cc3)CC[C@]3(C)[C@H](CC[C@@H]4[C@@]5(C)CC[C@H](O[C@@H]6O[C@H](CO)[C@@H](O[C@@H]7O[C@@H](C)[C@H](O)[C@@H](O)[C@H]7O)[C@H](O)[C@H]6O[C@@H]6O[C@@H](C)[C@H](O)[C@@H](O)[C@H]6O)C(C)(C)[C@@H]5CC[C@]43C)[C@@H]12`, for which the selectivity ratio in [2] is 13.5. In addition, the EC50 in [9] is 6.5 µM. Also, in [12], the CC50 was found to be 87.5 µM.

`C=C(C)[C@@H]1CC[C@]2(C(=O)Nc3cccc(OC)c3)CC[C@]3(C)[C@H](CC[C@@H]4[C@@]5(C)CC[C@H](O[C@@H]6O[C@H](CO)[C@@H](O[C@@H]7O[C@@H](C)[C@H](O)[C@@H](O)[C@H]7O)[C@H](O)[C@H]6O[C@@H]6O[C@@H](C)[C@H](O)[C@@H](O)[C@H]6O)C(C)(C)[C@@H]5CC[C@]43C)[C@@H]12`: the selectivity ratio in [2] is 26.9. Besides, in [9], the concentration for a half-maximal effect (EC50) was determined as 2.73 µM. Besides, the CC50 in data set [12] worked out at 73.3 µM.

For the compound `C=C(C)[C@@H]1CC[C@]2(C(=O)N(C)c3ccccc3)CC[C@]3(C)[C@H](CC[C@@H]4[C@@]5(C)CC[C@H](O[C@@H]6O[C@H](CO)[C@@H](O[C@@H]7O[C@@H](C)[C@H](O)[C@@H](O)[C@H]7O)[C@H](O)[C@H]6O[C@@H]6O[C@@H](C)[C@H](O)[C@@H](O)[C@H]6O)C(C)(C)[C@@H]5CC[C@]43C)[C@@H]12`, in [2], the selectivity ratio stood at 13.7. The EC50 in [9] was 5.06 µM. Also, in data set [12], the CC50 stood at 69.5 µM.

As to `C=C(C)[C@@H]1CC[C@]2(C(=O)Nc3ccccc3Cl)CC[C@]3(C)[C@H](CC[C@@H]4[C@@]5(C)CC[C@H](O[C@@H]6O[C@H](CO)[C@@H](O[C@@H]7O[C@@H](C)[C@H](O)[C@@H](O)[C@H]7O)[C@H](O)[C@H]6O[C@@H]6O[C@@H](C)[C@H](O)[C@@H](O)[C@H]6O)C(C)(C)[C@@H]5CC[C@]43C)[C@@H]12`, the selectivity ratio in [2] was found to be 8.7. Moreover, in [9], the EC50 stood at 5.41 µM. Further, in data set [12], the CC50 worked out at 47.1 µM.

In the case of `C=C(C)[C@@H]1CC[C@]2(C(=O)NOc3ccccc3)CC[C@]3(C)[C@H](CC[C@@H]4[C@@]5(C)CC[C@H](O[C@@H]6O[C@H](CO)[C@@H](O[C@@H]7O[C@@H](C)[C@H](O)[C@@H](O)[C@H]7O)[C@H](O)[C@H]6O[C@@H]6O[C@@H](C)[C@H](O)[C@@H](O)[C@H]6O)C(C)(C)[C@@H]5CC[C@]43C)[C@@H]12`, the selectivity ratio in data set [2] was 11.7. In addition, the EC50 in data set [9] was determined as 9.88 µM. Further, the CC50 in data set [12] was 116 µM.

For `C=C(C)[C@@H]1CC[C@]2(C(=O)Nc3ccc(OC)cc3)CC[C@]3(C)[C@H](CC[C@@H]4[C@@]5(C)CC[C@H](O[C@@H]6O[C@H](CO)[C@@H](O[C@@H]7O[C@@H](C)[C@H](O)[C@@H](O)[C@H]7O)[C@H](O)[C@H]6O[C@@H]6O[C@@H](C)[C@H](O)[C@@H](O)[C@H]6O)C(C)(C)[C@@H]5CC[C@]43C)[C@@H]12`, the selectivity ratio in data set [2] was 18.9. For the same compound, in [9], the EC50 turned out to be 9.44 µM. In data set [12], the CC50 was determined as 178 µM.

`C=C(C)[C@@H]1CC[C@]2(C(=O)NCc3ccccc3)CC[C@]3(C)[C@H](CC[C@@H]4[C@@]5(C)CC[C@H](O[C@@H]6O[C@H](CO)[C@@H](O[C@@H]7O[C@@H](C)[C@H](O)[C@@H](O)[C@H]7O)[C@H](O)[C@H]6O[C@@H]6O[C@@H](C)[C@H](O)[C@@H](O)[C@H]6O)C(C)(C)[C@@H]5CC[C@]43C)[C@@H]12`: the selectivity ratio in data set [2] is 44.9. Further, the EC50 in [9] amounted to 5.52 µM. The CC50 in data set [12] stood at 248 µM.

`O=C(/C=C/c1ccc(O)c2oc(-c3ccc(O)c(O)c3)cc12)O[C@H](Cc1ccc(O)c(O)c1)C(=O)O`: the selectivity ratio in data set [2] was over 17.8. The EC50 in data set [9] amounted to 5.63 µM. Also, the CC50 in data set [12] is over 100 µM.

On to `C=C(C)[C@@H]1CC[C@]2(C(=O)Nc3ccc(-c4ccccc4)cc3)CC[C@]3(C)[C@H](CC[C@@H]4[C@@]5(C)CC[C@H](O[C@@H]6O[C@H](CO)[C@@H](O[C@@H]7O[C@@H](C)[C@H](O)[C@@H](O)[C@H]7O)[C@H](O)[C@H]6O[C@@H]6O[C@@H](C)[C@H](O)[C@@H](O)[C@H]6O)C(C)(C)[C@@H]5CC[C@]43C)[C@@H]12`, for which the selectivity ratio in data set [2] stood at 11.9. Also, the EC50 in data set [9] was 8.46 µM. Also, in data set [12], the CC50 was 100 µM.

For `C=C(C)[C@@H]1CC[C@]2(C(=O)NCc3cccs3)CC[C@]3(C)[C@H](CC[C@@H]4[C@@]5(C)CC[C@H](O[C@@H]6O[C@H](CO)[C@@H](O[C@@H]7O[C@@H](C)[C@H](O)[C@@H](O)[C@H]7O)[C@H](O)[C@H]6O[C@@H]6O[C@@H](C)[C@H](O)[C@@H](O)[C@H]6O)C(C)(C)[C@@H]5CC[C@]43C)[C@@H]12`, the selectivity ratio in [2] was determined as 6.81. The EC50 in data set [9] was found to be 6.15 µM. The CC50 in data set [12] turned out to be 41.9 µM.

`C=C(C)[C@@H]1CC[C@]2(C(=O)NCc3ccc4ccccc4c3)CC[C@]3(C)[C@H](CC[C@@H]4[C@@]5(C)CC[C@H](O[C@@H]6O[C@H](CO)[C@@H](O[C@@H]7O[C@@H](C)[C@H](O)[C@@H](O)[C@H]7O)[C@H](O)[C@H]6O[C@@H]6O[C@@H](C)[C@H](O)[C@@H](O)[C@H]6O)C(C)(C)[C@@H]5CC[C@]43C)[C@@H]12`: the selectivity ratio in [2] is 62.7. In addition, in data set [7], the inhibition result was “inactive”. For the same compound, the EC50 in data set [9] stood at 2.67 µM. In addition, the CC50 in data set [12] turned out to be 167 µM.

For `C=C(C)[C@@H]1CC[C@]2(C(=O)OC)CC[C@]3(C)[C@H](CC[C@@H]4[C@@]5(C)CC[C@H](O[C@@H]6O[C@H](CO)[C@@H](O[C@@H]7O[C@@H](C)[C@H](O)[C@@H](O)[C@H]7O)[C@H](O)[C@H]6O[C@@H]6O[C@@H](C)[C@H](O)[C@@H](O)[C@H]6O)C(C)(C)[C@@H]5CC[C@]43C)[C@@H]12`, the selectivity ratio in data set [2] came out at 5.8. In data set [9], the EC50 worked out at 7.04 µM. For the same compound, the CC50 in [12] was 40.9 µM.

As for `C=C(C)[C@@H]1CC[C@]2(C(=O)Nc3ccccc3)CC[C@]3(C)[C@H](CC[C@@H]4[C@@]5(C)CC[C@H](O[C@@H]6O[C@H](CO)[C@@H](O[C@@H]7O[C@@H](C)[C@H](O)[C@@H](O)[C@H]7O)[C@H](O)[C@H]6O[C@@H]6O[C@@H](C)[C@H](O)[C@@H](O)[C@H]6O)C(C)(C)[C@@H]5CC[C@]43C)[C@@H]12`, in data set [2], the selectivity ratio was over 16. Moreover, in data set [7], the inhibition entry is “inactive”. Also, in data set [9], the EC50 is 12.5 µM. Moreover, the CC50 in data set [12] is over 200 µM.

`C=C(C)[C@@H]1CC[C@]2(C(=O)Nc3ccc4ncccc4c3)CC[C@]3(C)[C@H](CC[C@@H]4[C@@]5(C)CC[C@H](O[C@@H]6O[C@H](CO)[C@@H](O[C@@H]7O[C@@H](C)[C@H](O)[C@@H](O)[C@H]7O)[C@H](O)[C@H]6O[C@@H]6O[C@@H](C)[C@H](O)[C@@H](O)[C@H]6O)C(C)(C)[C@@H]5CC[C@]43C)[C@@H]12`: the selectivity ratio in data set [2] stood at 8.25. The EC50 in [9] stood at 8.43 µM. Also, the CC50 in data set [12] came to 69.6 µM.

What is called Kd is a measure of binding affinity in units of concentration. One may read the EC50 as the midpoint of the concentration-response curve. A word on the CC50: it is the concentration that lowers cell viability or growth by half.

These data come from ChEMBL document CHEMBL5370556, “Optimization, and biological evaluation of 3-O-β-chacotriosyl betulinic acid amide derivatives as novel small-molecule Omicron” (Eur J Med Chem, 2023).
